# Results: patent publication US9510598B2, “Nitrogen-containing heterocyclic compounds for plant disease control” (BAYER CROPSCIENCE AG, priority 2012, dated 2016)
# Type: physicochemical
# Conditions: HPLC on reversed phase columns, method [a]: pH 2.7, 0.1% formic acid in water / acetonitrile, linear gradient 10% to 95% acetonitrile
row,log P,Compound
1,2.78[a],CCn1cc(CNC(=O)C2(C)CC(c3ccc4ncc(Br)cc4c3)=NO2)c(SC)n1 (stereo not shown) [compound 638]
2,3.76[a],CCC1C(c2ccc3ncc(Br)cc3c2)=NOC1(C)C(=O)NC(C)C (stereo not shown) [compound 283]
3,2.77[a],C#Cc1cnc2ccc(C3=NOC(C)(C(=O)NCc4cccc(OC)n4)C3)cc2c1 (stereo not shown) [compound 665]
4,3.33[a],COC1(C(=O)NC2CCC2)CC(c2cc(Cl)c3ncc(Br)cc3c2)=NO1 (stereo not shown) [compound 576]
5,2.62[a],C#Cc1cnc2c(C)cc(C3=NOC(OC)(C(=O)NCc4cn(CC)nc4C)C3)cc2c1 (stereo not shown) [compound 609]
6,3.96^[a],CC1(C(=O)NCC2CCCCC2)CC(c2ccc3ncc(Br)cc3c2)=NO1 (stereo not shown) [compound 249]
7,2.26[a],C#Cc1cnc2ccc(C3=NOC(C)(C(=O)NCc4ccnc(OC)c4)C3)cc2c1 (stereo not shown) [compound 674]

# Same assay, conditions: HPLC on reversed phase columns, method [a]: pH 2.7, 0.1% formic acid in water and acetonitrile, linear gradient 10% to 95% acetonitrile
row,log P,Compound
1,2.32[a],C#Cc1cnc2ccc(C3=NOC(C)(C(=O)NCc4ccnc(SC)c4)C3)cc2c1 (stereo not shown) [compound 798]
2,1.64[a],C#Cc1cnc2ccc(C3=NOC(C)(C(=O)NCc4cccnc4O)C3)cc2c1 (stereo not shown) [compound 805]
3,1.27[a],C#Cc1cnc2ccc(C3=NOC(C)(C(=O)NCc4ccnc(C)c4)C3)cc2c1 (stereo not shown) [compound 685]
4,1.60[a],CN(C)c1ncccc1CNC(=O)C1(C)CC(c2ccc3ncc(Br)cc3c2)=NO1 (stereo not shown) [compound 780]
5,1.42[a],C#Cc1cnc2ccc(C3=NOC(C)(C(=O)NC(C)CN(C)C)C3)cc2c1 (stereo not shown) [compound 701]
6,1.54[a],C#Cc1cnc2ccc(C3=NOC(C)(C(=O)NCc4ccnc(O)c4)C3)cc2c1 (stereo not shown) [compound 758]
7,2.02[a],C#Cc1cnc2ccc(C3=NOC(C)(C(=O)NCc4ccncc4F)C3)cc2c1 (stereo not shown) [compound 804]
8,2.05[a],CC(C)c1ccnc(CNC(=O)C2(C)CC(c3ccc4ncc(Br)cc4c3)=NO2)c1 (stereo not shown) [compound 750]
9,2.20[a],C#Cc1cnc2ccc(C3=NOC(C)(C(=O)NCc4cc(C#N)ccn4)C3)cc2c1 (stereo not shown) [compound 751]
10,2.25[a],C#Cc1cnc2ccc(C3=NOC(C)(C(=O)NCc4cncc(OC)n4)C3)cc2c1 (stereo not shown) [compound 791]
11,2.86[a],CC(C)NC(=O)C1(C#N)CC(c2ccc3ncc(Br)cc3c2)=NO1 (stereo not shown) [compound 737]
12,2.27[a],COC1(C(=O)NCCC2CCOC2)CC(c2ccc3ncc(Br)cc3c2)=NO1 (racemic) [compound 823]
13,3.76[a],C#Cc1cnc2ccc(C3=NOC(C)(C(=O)NCCc4ccc(C(F)(F)F)cc4Cl)C3)cc2c1 (stereo not shown) [compound 766]
14,1.43[a],C#Cc1cnc2ccc(C3=NOC(C)(C(=O)NCc4cccc(C)n4)C3)cc2c1 (stereo not shown) [compound 691]

# Same assay, conditions: method [a]: HPLC/LC-MS on reversed phase at pH 2.7, 0.1% formic acid in water / acetonitrile, gradient 10% to 95% acetonitrile
row,log P,Compound
1,1.53[a],CC1(C(=O)NC(CN2CCCC2)C2CC2)CC(c2ccc3ncc(Br)cc3c2)=NO1 (stereo not shown) [compound 364]
2,3.07[a],CC1(C(=O)NCc2ccsc2)CC(c2ccc3ncc(Br)cc3c2)=NO1 (stereo not shown) [compound 479]
3,2.44[a],CCn1cc(CNC(=O)C2(C)CC(c3ccc4ncc(NC(=O)OC(C)(C)C)cc4c3)=NO2)c(C)n1 (stereo not shown) [compound 421]
4,2.55[a],CCn1cc(CNC(=O)C2(C)ON=C(c3ccc4ncc(Br)cc4c3)C2C)c(C)n1 (racemic) [compound 385]
5,2.73[a],CC(ONC(=O)C1(C)CC(c2ccc3ncc(Br)cc3c2)=NO1)C1CC1 (racemic) [compound 375]

# Same assay, conditions: method [a]: HPLC/LC-MS on reversed phase at pH 2.7, 0.1% formic acid in water / acetonitrile, linear gradient 10% to 95% acetonitrile
row,log P,Compound
1,3.29^[a],CCC(C)NC(=O)C1(C)CC(c2cc3cc(Br)cnc3c(F)c2OC)=NO1 (stereo not shown) [compound 27]
2,3.01^[a],CC(C)NC(=O)C1(CCl)CC(c2ccc3ncc(Br)cc3c2)=NO1 (stereo not shown) [compound 139]
3,3.5^[a],CC1(C(=O)NCc2cnn(-c3ccccc3)n2)CC(c2ccc3ncc(Br)cc3c2)=NO1 (stereo not shown) [compound 96]

# Same assay, conditions: method [a]: HPLC/LC-MS on reversed phase at pH 2.7, 0.1% formic acid in water and acetonitrile, linear gradient 10% to 95% acetonitrile
row,Log P,Compound
1,3.71^[a],CCOCCCNC(=O)C1(C(F)(F)F)CC(c2cc3cc(Br)cnc3c(F)c2F)=NO1 (stereo not shown) [compound 16]
2,1.04^[a],CC1(C(=O)NC2CC2)CC(c2ccc3ncccc3c2)=NO1 (stereo not shown) [compound 3]
